Active and inactive are the calls of the source. The rule behind the calls is not given here.
What was measured:
[1] = Antiproliferative activity against human SGC7901 cells measured after 72 hrs by MTT assay; format: functional, cell-based; settings: SGC-7901, 72 h
[2] = Antiproliferative activity against human KB cells measured after 72 hrs by MTT assay; format: functional, cell-based
[3] = Antiproliferative activity against human HT1080 cells measured after 72 hrs by MTT assay; format: functional, cell-based; settings: HT-1080, 72 h
[4] = Inhibition of porcine brain tubulin polymerization measured after 60 mins by fluorescence analysis; set-up: species or system Sus scrofa
[5] = Cell cycle arrest in human KB cells assessed as accumulation at G2/M-phase at 0.2 uM measured up to 60 hrs by propidium iodide staining-based flow cytometry; format: functional
[6] = Cell cycle arrest in human KB cells assessed as accumulation at G2/M-phase up to 0.2 uM measured after 24 hrs by propidium iodide staining-based flow cytometry; format: functional
[7] = Antitumor activity against mouse SVR cells implanted in athymic nude mouse assessed as tumor growth inhibition at 250 mg/kg, po qd for 10 days measured on day 4 relative to control; settings: read-out: TGI

| IC50 [4] [µM] | SMILES | IC50 [1] [µM] | IC50 [2] [nM] | IC50 [3] [µM] | Activity [5] | Activity [6] | inhibition in vivo at 250 mg/kg [7] [%] |
| --- | --- | --- | --- | --- | --- | --- | --- |
|  | CO/N=c1/ssc(-c2ccc(OC)c(N)c2)c1-c1cc(OC)c(OC)c(OC)c1 | > 100 | 4330 | 4.23 |  |  |  |
| 9.71 | COc1ccc(-c2ssc(=O)c2-c2cc(OC)c(OC)c(OC)c2)cc1O | 3.11 | 460 | 1.91 | Active | Active |  |
|  | COc1ccc(-c2ssc(=S)c2-c2cc(OC)c(OC)c(OC)c2)cc1 | 21.1 | 4910 | 18.6 |  |  |  |
|  | CO/N=c1/ssc(-c2cc(OC)c(OC)c(OC)c2)c1-c1ccc(OC)c(N)c1 | 1.96 | 517 | 0.915 |  |  |  |
|  | COc1ccc(-c2c(-c3cc(OC)c(OC)c(OC)c3)ssc2=O)cc1 | > 100 | > 100000 | > 100 |  |  |  |
| 12.8 | COc1ccc(-c2ss/c(=N/O)c2-c2cc(OC)c(OC)c(OC)c2)cc1N | 4.3 | 99 | 9.36 | Active | Active |  |
|  | CO/N=c1/ssc(-c2ccc(OC)c(O)c2)c1-c1cc(OC)c(OC)c(OC)c1 | 10 | 14500 | 4.6 |  |  |  |
|  | COc1ccc(-c2c(-c3cc(OC)c(OC)c(OC)c3)ss/c2=N/O)cc1N | 2.91 | 2910 | 2.91 |  |  |  |
|  | COc1ccc(-c2c(-c3cc(OC)c(OC)c(OC)c3)ssc2=O)cc1N | > 100 | > 100000 | > 100 |  |  |  |
|  | COc1ccc(-c2ss/c(=N/O)c2-c2cc(OC)c(OC)c(OC)c2)cc1 | 17.4 | 13700 | 6.66 |  |  |  |
|  | Cc1c(-c2cnccn2)ssc1=S [OLTIPRAZ] |  |  |  |  |  | 81 |
|  | COc1ccc(-c2ssc(=O)c2-c2cc(OC)c(OC)c(OC)c2)cc1[N+](=O)[O-] | 0.44 | 22300 | 4.22 |  |  |  |
|  | COc1ccc(-c2ssc(=O)c2-c2cc(OC)c(OC)c(OC)c2)cc1 | 0.134 | 324 | 0.464 |  |  |  |
|  | COc1ccc(-c2ssc(=S)c2-c2cc(OC)c(OC)c(OC)c2)cc1N | 0.444 | 327 | 0.834 |  |  |  |
|  | COc1ccc(-c2c(-c3cc(OC)c(OC)c(OC)c3)ssc2=S)cc1 | 2.35 | 1140 | 2.27 |  |  |  |
|  | COc1ccc(-c2c(-c3cc(OC)c(OC)c(OC)c3)ss/c2=N/O)cc1 | > 100 | > 100000 | > 100 |  |  |  |
|  | COc1ccc(-c2ss/c(=N/O)c2-c2cc(OC)c(OC)c(OC)c2)cc1O | 0.2 | 850 | 0.73 |  |  |  |
|  | COc1ccc(-c2c(-c3cc(OC)c(OC)c(OC)c3)ssc2=O)cc1[N+](=O)[O-] | > 100 | > 100000 | > 100 |  |  |  |
|  | COc1ccc(-c2ssc(=S)c2-c2cc(OC)c(OC)c(OC)c2)cc1O | 0.271 | 435 | 0.231 |  |  |  |
|  | COc1ccc(-c2c(-c3cc(OC)c(OC)c(OC)c3)ssc2=S)cc1N | 2.62 | 2170 | 3 |  |  |  |
|  | COc1ccc(-c2c(-c3cc(OC)c(OC)c(OC)c3)ssc2=S)cc1[N+](=O)[O-] | 44.7 | 38200 | 3.55 |  |  |  |
|  | COc1ccc(-c2ssc(=S)c2-c2cc(OC)c(OC)c(OC)c2)cc1[N+](=O)[O-] | 13.6 | > 100000 | 9.14 |  |  |  |
|  | CO/N=c1/ssc(-c2cc(OC)c(OC)c(OC)c2)c1-c1ccc(OC)c([N+](=O)[O-])c1 | > 100 | > 100000 | > 100 |  |  |  |
|  | COc1ccc(-c2c(-c3cc(OC)c(OC)c(OC)c3)ss/c2=N/O)cc1[N+](=O)[O-] | 6.56 | 5260 | 3.03 |  |  |  |

| SMILES | IC50 [4] [µM] | IC50 [1] [µM] | IC50 [2] [nM] | IC50 [3] [µM] | Activity [5] | Activity [6] | inhibition in vivo at 250 mg/kg [7] [%] |
| --- | --- | --- | --- | --- | --- | --- | --- |
| COc1ccc(/C=C\c2cc(OC)c(OC)c(OC)c2)cc1O [COMBRETASTATIN A4] | 0.92 | 0.026 | 7 | 0.01 |  |  |  |
